# Measurements reported in patent publication US10370401B2, “Substituted nucleosides, nucleotides and analogs thereof” (Alios BioPharma, Inc., priority 2013, dated 2019).
# Read-outs that look alike come from different tables or passages of the source.
# Tests used:
# [1] = target: human rhinovirus 16 polymerase (HRV16pol) (Human rhinovirus 16, UniProt Q82122); assay: biochemical; settings: HRV16pol, 2.5 h at 30° C., mean of several independent experiments; read-out: IC50
# NS5B570-Con1 (Delta-21) = NS5B570-Con1 (Delta-21) (Hepatitis C virus genotype 1b, UniProt Q9WMX2); assay: biochemical; set-up: species or system HCV
# [2] = target: dengue virus NS5 polymerase domain (DENVpol, serotype 2, New Guinea C strain) (Dengue virus type 2, UniProt P14340); assay: Dengue virus polymerase inhibition assay; assay type: biochemical; settings: DENVpol serotype 2, 3 hours at 30° C., mean of several independent experiments
# Method: The enzyme activity of dengue virus NS5 polymerase domain (DENVpol, serotype 2, New Guinea C strain) was measured as an incorporation of tritiated NMP into acid-insoluble RNA products. DENVpol assay reactions contained 100 nM recombinant enzyme, 50 nM heteropolymeric RNA, about 0.5 μCi tritiated NTP, 0.33 μM of competing cold NTP, 40 mM HEPES (pH 7.5), 3 mM dithiothreitol, and 2 mM MgCl2. Standard reactions were incubated for 3 hours at 30° C., in the presence of increasing concentration of inhibitor. At the end of the reaction, RNA was precipitated with 10% TCA, and acid-insoluble RNA products were filtered on a size exclusion 96-well plate. After washing of the plate, scintillation liquid was added and radiolabeled RNA products were detected according to standard procedures with a Trilux Topcount scintillation counter. The compound concentration at which the enzyme-catalyzed rate was reduced by 50% (IC50) was calculated by fitting the data to a non-linear regression (sigmoidal).
# Human rhinovirus 1B = assay: Picornavirus assay (CPE, CellTiter-Glo, HeLa-OHIO cells); assay type: cell-based
# [3] = system: Dengue virus type 2 strain New Guinea C (NG-C) or Dengue virus type 4 strain H241; assay: Dengue virus cell-based assay (Huh-7.5 cells, CellTiter-Glo)
# Method: The Dengue virus type 2 strain New Guinea C (NG-C) and the Dengue virus type 4 strain H241 were purchased from ATCC (Manassas, Va.; item numbers VR-1584 and VR-1490, respectively). 24 h prior to dosing, Huh-7.5 cells were plated in 96 well plates at a density of 1.5×10^5/mL in DMEM medium supplemented with 10% fetal bovine serum, 1% HEPES buffer, 1% Penicillin/Streptomycin and 1% non-essential amino acids (all Mediatech, Manassas, Va.). At the day of infection, serially diluted compounds were added to cells and incubated for 4 h. After the end of the 4 h pre-incubation period, cells were infected with either Dengue virus type 2 NG-C or Dengue virus type 4H241. The virus inoculum was selected to cause 80-90% cytopathic effect in five to six days. Infected cells were incubated for five (NG-C) to six (H241) days at 37° C., 5% CO2. To develop the assay, 100 μL media was replaced with 100 μl CellTiter-Glo® reagent (Promega, Madison, Wis.), and incubated for 10 mins at RT. Luminescence was measured on a Victor X3 multi-label plate reader. Potential compound cytotoxicity of was determined using uninfected parallel cultures.
# HRV-89 = assay: Human rhinovirus strain panel assay, HRV-89; assay type: cell-based; settings: Rhinovirus A, HRV89
# [4] = Cytotoxicity in HeLa OHIO host cell line; assay type: cell-based; settings: human, HeLa-OHIO cells, n>5
# subgenomic HCV replicon = assay: HCV replicon assay (Huh-7, luciferase reporter); assay type: cell-based; settings: Hepatitis C virus, Huh-7, 72 h
# [5] = Rhinovirus A, 96 h, Human rhinovirus 1B, HeLa-OHIO cells, 4 d at 33° C., read-out: EC50
# [6] = Human rhinovirus 1B, HeLa-OHIO cells, 4 d at 33° C., read-out: EC50
# [7] = Huh-7.5 cells, antiviral activity, dengue type (2 NG-C or 4 H241) not given, read-out: IC50
# Sequence of human rhinovirus 16 polymerase (HRV16pol) (Q82122 1694-2153 limits assumed): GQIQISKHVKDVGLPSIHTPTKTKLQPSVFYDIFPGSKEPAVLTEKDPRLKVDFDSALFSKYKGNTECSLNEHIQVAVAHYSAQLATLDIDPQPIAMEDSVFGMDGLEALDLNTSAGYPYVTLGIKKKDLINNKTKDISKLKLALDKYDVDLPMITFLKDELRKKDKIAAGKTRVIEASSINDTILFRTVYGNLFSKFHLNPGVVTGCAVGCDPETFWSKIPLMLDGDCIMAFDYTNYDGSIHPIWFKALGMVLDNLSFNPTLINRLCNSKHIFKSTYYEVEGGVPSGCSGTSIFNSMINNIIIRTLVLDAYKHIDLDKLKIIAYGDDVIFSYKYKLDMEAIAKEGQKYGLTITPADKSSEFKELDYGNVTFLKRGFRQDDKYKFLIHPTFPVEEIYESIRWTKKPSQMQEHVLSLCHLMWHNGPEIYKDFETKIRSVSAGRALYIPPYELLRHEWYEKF
IC50 [2] [nM],Compound,IC50 [1] [nM],"IC50 ([3]; Dengue virus, Huh7.5) [nM]",also measured
–,CCOc1nc(N)nc2c1ncn2[C@@H]1O[C@](F)(CO[P@@](=O)(N[C@@H](C)C(=O)OC2CCCCC2)Oc2ccccc2)[C@@H](O)[C@@]1(C)F [Compound 26],–,< 1000,"EC50 (Human rhinovirus 1B; Rhinovirus A, 96 h): 1000 to 10000 nM"
< 10000,C[C@]1(O)[C@H](n2ccc(N)nc2=O)O[C@](F)(COP(=O)(O)OP(=O)(O)OP(=O)(O)O)[C@H]1O [compound 124],< 1000,–,–
< 1000,C#C[C@]1(O)[C@H](n2cnc3c(=O)[nH]c(N)nc32)O[C@](F)(COP(=O)(O)OP(=O)(O)OP(=O)(O)O)[C@H]1O [compound 115],< 1000,–,–
< 10000,C#C[C@]1(O)[C@H](n2ccc(=O)[nH]c2=O)O[C@](F)(COP(=O)(O)OP(=O)(O)OP(=O)(O)O)[C@H]1O [compound 114],< 1000,–,–
–,CC(C)OC(=O)OCOP(=O)(OCOC(=O)OC(C)C)OC[C@@]1(F)O[C@@H](n2ccc(=O)[nH]c2=O)[C@](C)(O)[C@@H]1O [Compound 9],–,< 10000,EC50 (Human rhinovirus 1B; [5]): < 1000 nM
–,CCOc1nc(N)nc2c1ncn2[C@@H]1O[C@]2(F)CO[P@@](=O)(OC(C)C)O[C@H]2[C@@]1(C)O [Compound 89],–,< 10000,EC50 (Human rhinovirus 1B; [5]): 10000 to 100000 nM
–,CCOc1nc(N)nc2c1ncn2[C@@H]1O[C@]2(F)CO[P@](=O)(OC(C)C)O[C@H]2[C@@]1(C)O [Compound 88],–,< 10000,EC50 (Human rhinovirus 1B; [5]): 10000 to 100000 nM
< 100000,Nc1ccn([C@@H]2O[C@](CCl)(COP(=O)(O)OP(=O)(O)OP(=O)(O)O)[C@@H](O)[C@H]2O)c(=O)n1 [compound 164],–,–,–
–,C#C[C@]1(O)[C@H](n2ccc(=O)[nH]c2=O)O[C@](F)(COP(=O)(N[C@@H](C)C(=O)OC2CCCCC2)Oc2ccccc2)[C@H]1O (stereo partly drawn) [Compound 13],–,< 1000,"EC50 (Human rhinovirus 1B; Rhinovirus A, 96 h): < 1000 nM"
< 10000,Nc1nc2c(ncn2[C@@H]2O[C@](F)(COP(=O)(O)OP(=O)(O)OP(=O)(O)O)[C@@H](O)[C@H]2F)c(=O)[nH]1 [compound 163],–,–,–
< 1000,C[C@]1(O)[C@H](n2ccc(=O)[nH]c2=O)O[C@](F)(COP(=O)(O)OP(=O)(O)OP(=O)(O)O)[C@H]1O [Compound 110],< 10000,–,–
< 1000,C[C@]1(F)[C@H](n2ccc(N)nc2=O)O[C@](F)(COP(=O)(O)OP(=O)(O)OP(=O)(O)O)[C@H]1O [compound 29],< 1000,–,–
–,C#C[C@]1(O)[C@H](n2cnc3c(OCC)nc(N)nc32)O[C@](F)(CO[P@@](=O)(N[C@@H](C)C(=O)OC2CCCCC2)Oc2ccccc2)[C@H]1O [Compound 28],–,–,"EC50 (Human rhinovirus 1B; [6]): < 1000 nM; IC50 [3, 7]: < 10000 nM"
–,CC(C)OC(=O)OCOP(=O)(OCOC(=O)OC(C)C)OC[C@@]1(F)O[C@@H](n2cnc3c(=O)[nH]c(N)nc32)[C@](C)(O)[C@@H]1O [Compound 46],–,< 100000,EC50 (Human rhinovirus 1B; [5]): < 1000 nM
–,C#C[C@]1(O)[C@H](n2cnc3c(OCC)nc(N)nc32)O[C@](F)(CO[P@](=O)(N[C@@H](C)C(=O)OC2CCCCC2)Oc2ccccc2)[C@H]1O [Compound 27],–,–,"EC50 (Human rhinovirus 1B; [6]): < 1000 nM; IC50 [3, 7]: < 10000 nM"
–,CCOc1nc(N)nc2c1ncn2[C@@H]1O[C@](F)(CO[P@](=O)(N[C@@H](C)C(=O)OC2CCCCC2)Oc2ccccc2)[C@@H](O)[C@@]1(C)F [Compound 25],–,< 1000,"EC50 (Human rhinovirus 1B; Rhinovirus A, 96 h): < 1000 nM"
–,CCOc1nc(N)nc2c1ncn2[C@@H]1O[C@]2(F)CO[P@](=O)(OC(C)C)O[C@H]2[C@@]1(C)F [Compound 86],–,< 1000,EC50 (Human rhinovirus 1B; [5]): 10000 to 100000 nM
< 10000,C#C[C@]1(F)[C@H](n2cnc3c(=O)[nH]c(N)nc32)O[C@](F)(COP(=O)(O)OP(=O)(O)OP(=O)(O)O)[C@H]1O [compound 123],< 1000,–,–
–,CC(C)OC(=O)OCOP(=O)(OCOC(=O)OC(C)C)OC[C@@]1(CF)O[C@@H](n2ccc(=O)[nH]c2=O)[C@](C)(O)[C@@H]1OC(=O)C(N)C(C)C (stereo partly drawn) [Compound 160],–,–,"EC50 (Human rhinovirus 1B; Rhinovirus A, 96 h): < 1000 nM; EC50 (HRV-89): 1000 to 2000 nM; CC50 [4]: > 100000 nM"
–,CCOc1nc(N)nc2c1ncn2[C@@H]1O[C@](F)(COP(=O)(OCOC(=O)OC(C)C)OCOC(=O)OC(C)C)[C@@H](O)[C@@]1(C)O [Compound 55],–,< 1000,EC50 (Human rhinovirus 1B; [5]): < 1000 nM
–,C[C@H](NP(=O)(OC[C@@]1(F)O[C@@H](n2cnc3c(=O)[nH]c(N)nc32)[C@](C)(O)[C@@H]1F)Oc1ccccc1)C(=O)OC1CCCCC1 (stereo partly drawn) [Compound 14],–,< 10000,"EC50 (Human rhinovirus 1B; Rhinovirus A, 96 h): 10000 to 100000 nM; EC50 (subgenomic HCV replicon): 10000 to 100000 nM"
< 10000,C[C@]1(F)[C@H](n2ccc(=O)[nH]c2=O)O[C@](F)(COP(=O)(O)OP(=O)(O)OP(=O)(O)O)[C@H]1O [compound 147],–,–,–
–,CC(C)OC(=O)OCOP(=O)(OCOC(=O)OC(C)C)OC[C@@]1(F)O[C@@H](n2ccc(=O)[nH]c2=O)[C@](C)(F)[C@@H]1O [Compound 161],–,< 10000,EC50 (Human rhinovirus 1B; [5]): 1000 to 10000 nM
–,C#C[C@]1(O)[C@H](n2ccc(=O)[nH]c2=O)O[C@](F)(COP(=O)(OCOC(=O)OC(C)C)OCOC(=O)OC(C)C)[C@H]1O [Compound 53],–,< 10000,EC50 (Human rhinovirus 1B; [5]): < 1000 nM
–,CCOc1nc(N)nc2c1ncn2[C@@H]1O[C@](F)(COP(=O)(N[C@@H](C)C(=O)OC2CCCCC2)Oc2ccccc2)[C@@H](F)[C@@]1(C)O (stereo partly drawn) [Compound 16],–,< 10000,"EC50 (Human rhinovirus 1B; Rhinovirus A, 96 h): 1000 to 10000 nM; EC50 (subgenomic HCV replicon): 1000 to 10000 nM"
–,CCOc1nc(N)nc2c1ncn2[C@@H]1O[C@](F)(COP(=O)(N[C@@H](C)C(=O)OC2CCCCC2)Oc2ccccc2)[C@@H](O)[C@@]1(C)O (stereo partly drawn) [Compound 10],–,< 1000,"EC50 (Human rhinovirus 1B; Rhinovirus A, 96 h): < 1000 nM"

Compound,IC50 [2] [nM],IC50 [1] [nM],"IC50 ([3]; Dengue virus, Huh7.5) [nM]",also measured
C[C@@]1(O)[C@H](O)[C@@](CF)(COP(=O)(O)OP(=O)(O)OP(=O)(O)O)O[C@H]1n1ccc(N)nc1=O [compound 91],< 100000,< 10000,–,IC50 (NS5B570-Con1 (Delta-21)): < 1000 nM
C[C@]1(O)[C@H](n2cnc3c(=O)[nH]c(N)nc32)O[C@](F)(COP(=O)(O)OP(=O)(O)OP(=O)(O)O)[C@H]1F [compound 101],< 10000,< 1000,–,IC50 (NS5B570-Con1 (Delta-21)): < 1000 nM
C#C[C@]1(O)[C@H](n2cnc3c(=O)[nH]c(N)nc32)O[C@](F)(COP(=O)(O)OP(=O)(O)OP(=O)(O)O)[C@H]1F [compound 103],< 1000,< 1000,–,IC50 (NS5B570-Con1 (Delta-21)): < 1000 nM
C[C@]1(F)[C@H](n2cnc3c(=O)[nH]c(N)nc32)O[C@](F)(COP(=O)(O)OP(=O)(O)OP(=O)(O)O)[C@H]1O [compound 19],< 10000,< 1000,–,IC50 (NS5B570-Con1 (Delta-21)): < 1000 nM
C[C@@]1(O)[C@H](O)[C@@](CF)(COP(=O)(O)OP(=O)(O)OP(=O)(O)O)O[C@H]1n1cnc2c(=O)[nH]c(N)nc21 [compound 34],< 1000,< 1000,–,IC50 (NS5B570-Con1 (Delta-21)): < 1000 nM
C[C@@]1(O)[C@H](O)[C@@](CF)(COP(=O)(O)OP(=O)(O)OP(=O)(O)O)O[C@H]1n1ccc(=O)[nH]c1=O [compound 92],< 10000,< 1000,–,IC50 (NS5B570-Con1 (Delta-21)): < 1000 nM
C[C@]1(Cl)[C@H](n2ccc(=O)[nH]c2=O)O[C@](F)(COP(=O)(O)OP(=O)(O)OP(=O)(O)O)[C@H]1O [compound 149],< 10000,–,–,IC50 (NS5B570-Con1 (Delta-21)): < 1000 nM
C[C@@]1(F)[C@H](O)[C@@](CF)(COP(=O)(O)OP(=O)(O)OP(=O)(O)O)O[C@H]1n1cnc2c(=O)[nH]c(N)nc21 [compound 162],< 10000,< 1000,–,IC50 (NS5B570-Con1 (Delta-21)): 1000 to 10000 nM
